# Non-standard residues stand in square brackets, D forms with d. Residues, ends and D or L forms follow the SMILES beside them. *: point of attachment. Tyr(3-Br) = N[C@@H](Cc1ccc(O)c(Br)c1)C(=O)O; Boc = CC(C)(C)OC(=O)*
# Columns and labels:
# [1] = Cytotoxic activity, standard tetrazolium (MTT) assay on HaCaT cells; type: cell-based; conditions: human, HaCaT keratinocyte cells, 24 h incubation with compound, 1-200 µg/mL
# Method: (§1) Cytotoxic properties of pure compounds were determined with a standard tetrazolium assay. B16 (6000 cells/well) and HaCaT (10,000 cells/well) cells were seeded in RPMI 1640 medium with 5% fetal calf serum (FCS) and antibiotic at day 0 in well-plate. Incubation was performed at 37 °C in an atmosphere of 5% CO2. After 24 h of incubation, compounds were added at different concentrations (1, 10, 50, 100, and 200 µg/mL), and the plate was incubated 24 h more (37 °C, 5% CO2). Cell growth and viability were then measured at 540 nm, using a MTT (3-[4,5-dimethylthiazol-2-yl]-2,5-diphenyltetrazolium bromide) assay. Each experiment was repeated at least three times.
# [2] = Cytotoxic activity, standard tetrazolium (MTT) assay on B16 cells; type: cell-based, murine; conditions: mouse, B16 melanoma cells, 24 h incubation with compound, 1-200 µg/mL
# Method: as §1
SMILES,IC50 at 24 h [1] [µg/mL],IC50 at 24 h [2] [µg/mL]
"C[S+]([O-])CC[C@@H]1NC(=O)[C@@H]2CCCN2C1=O (stereo partly drawn) [Compound 1, cyclo (L-Pro-L-OMet)]",> 200,> 200
"O=C1N[C@@H](Cc2ccc(O)cc2)C(=O)N2CCC[C@@H]12 [Compound 2, cyclo (L-Pro-L-Tyr)]",> 200,> 200
"O=C1N[C@@H](Cc2ccc(O)cc2)C(=O)N2CCC[C@H]12 [Compound 3, cyclo (D-Pro-L-Tyr)]",> 200,> 200
"CC(C)[C@@H]1NC(=O)[C@@H]2CCCN2C1=O [Compound 4, cyclo (L-Pro-L-Val)]",> 200,> 200
"CC(C)C[C@@H]1NC(=O)[C@@H]2CCCN2C1=O [Compound 5, cyclo (L-Pro-L-Leu)]",> 200,> 200
"O=C1N[C@@H](Cc2ccc(O)c(Br)c2)C(=O)N2CCC[C@H]12 [Compound 6, cyclo (D-Pro-L-Br-Tyr)]",> 200,> 200
"O=C1N[C@@H](Cc2ccc(O)c(Br)c2)C(=O)N2CCC[C@@H]12 [Compound 7, cyclo (L-Pro-L-Br-Tyr)]",> 200,> 200
"O=Cc1c[nH]c2ccccc12 [Compound 8, indole-carboxaldehyde]",79 ± 6,72 ± 6
"COC(=O)[C@H]1CCCN1C(=O)[C@H](Cc1ccc(O)c(Br)c1)NC(=O)OC(C)(C)C [Compound 13a, Methyl ((S)-3-(3-bromo-4-hydroxyphenyl)-2-((tert-butoxycarbonyl)amino)propanoyl)-D-prolinate] (Boc-[Tyr(3-Br)]-[dP]-OMe)",> 200,> 200
"COC(=O)[C@@H]1CCCN1C(=O)[C@H](Cc1ccc(O)c(Br)c1)NC(=O)OC(C)(C)C [Compound 13b, Methyl ((S)-3-(3-bromo-4-hydroxyphenyl)-2-((tert-butoxycarbonyl)amino)propanoyl)-L-prolinate] (Boc-[Tyr(3-Br)]-Pro-OMe)",7 ± 2.5,18 ± 5

# — PMC6155340, “Isolation and Structure Identification of Novel Brominated Diketopiperazines from Nocardia ignorata—A Lichen-Associated Actinobacterium” (Molecules : A Journal of Synthetic Chemistry and Natural …, 2017)
